From patent publication US20100137449A1, “SUBSTITUTED 1,3-CYCLOPENTADIONE MULTI-TARGET PROTEIN KINASE MODULATORS OF CANCER, ANGIOGENESIS AND THE INFLAMMATORY PATHWAYS ASSOCIATED THEREWITH” (METAPROTEOMICS, LLC, priority 2007, published 2010)

Columns and labels:
Assay in all cases: KinaseProfiler Assay
NEK6(h) = NEK6(h) (Homo sapiens, UniProt Q9HC98)
SAPK2b(h) = SAPK2b(h) (Homo sapiens, UniProt Q15759)
MST3(h) = MST3(h) (Homo sapiens, UniProt Q9Y6E0)
Arg(h) = Arg(h) (Homo sapiens, UniProt P42684)
Chain of Arg(h) (P42684 whole entry): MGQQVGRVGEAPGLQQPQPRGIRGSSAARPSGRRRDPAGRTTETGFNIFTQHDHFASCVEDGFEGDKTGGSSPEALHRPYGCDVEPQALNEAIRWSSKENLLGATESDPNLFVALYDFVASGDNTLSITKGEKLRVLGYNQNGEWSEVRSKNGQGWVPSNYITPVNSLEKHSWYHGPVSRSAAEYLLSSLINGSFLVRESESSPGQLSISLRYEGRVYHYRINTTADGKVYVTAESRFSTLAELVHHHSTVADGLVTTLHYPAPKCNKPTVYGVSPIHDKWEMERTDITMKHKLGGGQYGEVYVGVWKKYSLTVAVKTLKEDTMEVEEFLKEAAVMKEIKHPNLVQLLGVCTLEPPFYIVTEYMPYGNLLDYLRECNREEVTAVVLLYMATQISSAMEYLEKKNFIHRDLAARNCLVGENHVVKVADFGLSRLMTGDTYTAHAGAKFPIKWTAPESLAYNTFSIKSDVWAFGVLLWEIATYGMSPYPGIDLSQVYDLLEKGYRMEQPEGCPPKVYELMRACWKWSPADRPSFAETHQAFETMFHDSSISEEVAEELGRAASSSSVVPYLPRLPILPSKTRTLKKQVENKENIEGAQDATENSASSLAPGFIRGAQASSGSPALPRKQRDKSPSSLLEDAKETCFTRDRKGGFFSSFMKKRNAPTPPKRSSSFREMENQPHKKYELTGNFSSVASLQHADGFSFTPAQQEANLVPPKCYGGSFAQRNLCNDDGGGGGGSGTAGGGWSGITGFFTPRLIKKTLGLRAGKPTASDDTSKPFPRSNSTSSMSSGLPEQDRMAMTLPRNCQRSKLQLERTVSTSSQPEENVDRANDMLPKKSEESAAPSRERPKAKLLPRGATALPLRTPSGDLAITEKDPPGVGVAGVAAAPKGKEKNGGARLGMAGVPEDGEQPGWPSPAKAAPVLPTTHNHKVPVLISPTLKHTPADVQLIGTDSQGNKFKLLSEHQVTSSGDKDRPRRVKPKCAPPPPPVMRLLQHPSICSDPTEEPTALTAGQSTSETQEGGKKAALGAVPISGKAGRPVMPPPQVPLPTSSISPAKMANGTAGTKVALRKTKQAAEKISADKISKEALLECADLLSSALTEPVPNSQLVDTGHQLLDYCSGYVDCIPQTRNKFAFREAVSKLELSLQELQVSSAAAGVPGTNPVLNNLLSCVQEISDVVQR

PKCγ(h) = PKCγ(h) (Homo sapiens, UniProt P05129)
EphB3(h) = target: T1, EphB3(h) (Homo sapiens, UniProt P54753)
T1 sequence (P54753 34-998): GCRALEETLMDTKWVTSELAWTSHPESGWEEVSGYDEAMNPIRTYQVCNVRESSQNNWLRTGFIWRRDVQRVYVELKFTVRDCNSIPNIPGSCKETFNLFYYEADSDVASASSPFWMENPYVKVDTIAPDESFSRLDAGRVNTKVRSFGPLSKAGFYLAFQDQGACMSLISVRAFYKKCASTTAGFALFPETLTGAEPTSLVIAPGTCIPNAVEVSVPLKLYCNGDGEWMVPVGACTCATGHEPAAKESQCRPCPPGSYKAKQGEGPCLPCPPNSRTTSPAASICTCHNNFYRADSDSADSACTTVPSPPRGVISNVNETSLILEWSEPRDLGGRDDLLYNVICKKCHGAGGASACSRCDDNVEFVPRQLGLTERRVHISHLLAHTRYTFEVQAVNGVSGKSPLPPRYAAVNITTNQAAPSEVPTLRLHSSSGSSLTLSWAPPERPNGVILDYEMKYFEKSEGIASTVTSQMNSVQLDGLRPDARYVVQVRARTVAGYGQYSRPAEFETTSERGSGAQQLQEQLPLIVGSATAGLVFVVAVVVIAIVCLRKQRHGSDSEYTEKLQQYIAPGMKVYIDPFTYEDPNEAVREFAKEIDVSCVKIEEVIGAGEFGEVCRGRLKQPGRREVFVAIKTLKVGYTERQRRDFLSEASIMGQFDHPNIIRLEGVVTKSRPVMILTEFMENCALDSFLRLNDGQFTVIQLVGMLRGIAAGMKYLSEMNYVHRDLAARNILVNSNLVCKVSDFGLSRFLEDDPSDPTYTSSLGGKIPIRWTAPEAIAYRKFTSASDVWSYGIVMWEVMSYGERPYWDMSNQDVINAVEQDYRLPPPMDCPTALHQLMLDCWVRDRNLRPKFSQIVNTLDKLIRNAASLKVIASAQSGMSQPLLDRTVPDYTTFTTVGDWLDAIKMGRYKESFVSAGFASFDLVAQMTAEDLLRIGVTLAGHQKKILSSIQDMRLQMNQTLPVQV

SGK(h) = target: T2, SGK(h) (Homo sapiens, UniProt O00141)
T2 sequence (O00141 1-431): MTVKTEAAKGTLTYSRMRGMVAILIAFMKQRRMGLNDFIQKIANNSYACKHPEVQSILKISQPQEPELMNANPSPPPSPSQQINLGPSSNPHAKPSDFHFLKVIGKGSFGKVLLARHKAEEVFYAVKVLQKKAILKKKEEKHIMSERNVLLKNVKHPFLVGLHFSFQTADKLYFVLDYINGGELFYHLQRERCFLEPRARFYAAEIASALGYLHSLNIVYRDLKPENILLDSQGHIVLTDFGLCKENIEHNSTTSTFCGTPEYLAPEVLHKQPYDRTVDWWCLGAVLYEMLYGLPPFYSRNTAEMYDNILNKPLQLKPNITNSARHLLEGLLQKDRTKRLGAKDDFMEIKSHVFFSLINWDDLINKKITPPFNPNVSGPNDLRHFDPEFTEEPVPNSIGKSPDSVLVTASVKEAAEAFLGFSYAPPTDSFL

Chain of NEK6(h) (Q9HC98 whole entry): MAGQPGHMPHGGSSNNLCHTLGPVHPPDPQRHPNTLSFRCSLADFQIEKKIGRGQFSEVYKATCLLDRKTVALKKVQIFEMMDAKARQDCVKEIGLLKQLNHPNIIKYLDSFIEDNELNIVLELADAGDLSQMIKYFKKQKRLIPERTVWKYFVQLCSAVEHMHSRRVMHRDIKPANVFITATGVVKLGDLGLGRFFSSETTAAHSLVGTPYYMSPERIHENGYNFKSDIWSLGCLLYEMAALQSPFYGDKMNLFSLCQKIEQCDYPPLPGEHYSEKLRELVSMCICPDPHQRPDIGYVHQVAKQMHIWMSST
Chain of MST3(h) (Q9Y6E0 whole entry): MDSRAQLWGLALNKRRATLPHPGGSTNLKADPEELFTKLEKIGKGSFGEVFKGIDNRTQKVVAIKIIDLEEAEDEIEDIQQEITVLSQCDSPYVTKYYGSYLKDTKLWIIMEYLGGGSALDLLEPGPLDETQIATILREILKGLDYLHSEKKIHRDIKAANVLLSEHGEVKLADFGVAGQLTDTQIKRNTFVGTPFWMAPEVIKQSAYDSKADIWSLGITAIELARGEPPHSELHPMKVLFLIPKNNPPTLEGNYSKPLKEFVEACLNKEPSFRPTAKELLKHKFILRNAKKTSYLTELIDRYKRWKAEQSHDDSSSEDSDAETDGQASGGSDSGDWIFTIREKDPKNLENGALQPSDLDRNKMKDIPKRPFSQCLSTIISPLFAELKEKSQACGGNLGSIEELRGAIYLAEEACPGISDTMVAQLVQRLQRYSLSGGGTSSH
Chain of SAPK2b(h) (Q15759 whole entry): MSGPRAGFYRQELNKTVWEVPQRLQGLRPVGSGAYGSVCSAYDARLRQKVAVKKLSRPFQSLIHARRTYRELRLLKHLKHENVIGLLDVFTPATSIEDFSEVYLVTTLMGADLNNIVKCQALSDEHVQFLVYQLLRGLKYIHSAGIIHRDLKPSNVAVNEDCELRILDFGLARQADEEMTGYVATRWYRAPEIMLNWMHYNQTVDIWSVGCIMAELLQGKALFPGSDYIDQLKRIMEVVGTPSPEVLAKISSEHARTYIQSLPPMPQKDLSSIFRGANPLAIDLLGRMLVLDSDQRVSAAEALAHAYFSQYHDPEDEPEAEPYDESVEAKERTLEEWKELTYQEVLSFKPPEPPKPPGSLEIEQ

## CC(C)CCC(=O)[C@]1(O)C(O)=C(C(=O)C(C)C)C(=O)[C@H]1CCC(C)C [TH2, tetrahydroiso-cohumulone]
NEK6(h); 1 μg/ml
  kinase inhibition: 103% of control
NEK6(h); 5 μg/ml
  kinase inhibition: 100% of control
NEK6(h); 25 μg/ml
  kinase inhibition: 79% of control
NEK6(h); 50 μg/ml
  kinase inhibition: 67% of control
NEK6(h); 100 μg/ml
  kinase inhibition: 53% of control
SAPK2b(h); 1 μg/ml
  kinase inhibition: 117% of control
SAPK2b(h); 5 μg/ml
  kinase inhibition: 110% of control
SAPK2b(h); 25 μg/ml
  kinase inhibition: 108% of control
SAPK2b(h); 50 μg/ml
  kinase inhibition: 108% of control
SAPK2b(h); 100 μg/ml
  kinase inhibition: 111% of control
MST3(h); 1 μg/ml
  kinase inhibition: 107% of control
MST3(h); 5 μg/ml
  kinase inhibition: 89% of control
MST3(h); 25 μg/ml
  kinase inhibition: 87% of control
MST3(h); 50 μg/ml
  kinase inhibition: 46% of control
MST3(h); 100 μg/ml
  kinase inhibition: 45% of control
Arg(h); 1 μg/ml
  kinase inhibition: 92% of control
Arg(h); 5 μg/ml
  kinase inhibition: 92% of control
Arg(h); 25 μg/ml
  kinase inhibition: 69% of control
Arg(h); 50 μg/ml
  kinase inhibition: 53% of control
Arg(h); 100 μg/ml
  kinase inhibition: 43% of control
PKCγ(h); 1 μg/ml
  kinase inhibition: 102% of control
PKCγ(h); 5 μg/ml
  kinase inhibition: 107% of control
PKCγ(h); 25 μg/ml
  kinase inhibition: 101% of control
PKCγ(h); 50 μg/ml
  kinase inhibition: 91% of control
PKCγ(h); 100 μg/ml
  kinase inhibition: 99% of control
EphB3(h); 1 μg/ml
  kinase inhibition: 80% of control
EphB3(h); 5 μg/ml
  kinase inhibition: 71% of control
EphB3(h); 25 μg/ml
  kinase inhibition: 69% of control
EphB3(h); 50 μg/ml
  kinase inhibition: 62% of control
EphB3(h); 100 μg/ml
  kinase inhibition: 57% of control
SGK(h); 1 μg/ml
  kinase inhibition: 106% of control
SGK(h); 5 μg/ml
  kinase inhibition: 96% of control
SGK(h); 25 μg/ml
  kinase inhibition: 97% of control
SGK(h); 50 μg/ml
  kinase inhibition: 92% of control
SGK(h); 100 μg/ml
  kinase inhibition: 76% of control
